The test system of the test is SPI1 gene. In words: qRT-PCR of SPI1 gene expression on adding doxycycline (PU protocol). It is filed as cell-based, human. The procedure: The expression level at the transcription level can be evaluated through, for example, quantitative reverse transcription PCR (qRT-PCR) using one obtained by reverse-transcribing mRNA prepared from target cells as a template.
In the PU protocol, doxycycline (1 μg/mL) was added to the culture liquid from day 6 to day 18 from the start of culture.
By adding doxycycline, the expression level of the SPI1 gene evaluated through qRT-PCR increased by at least about 50 times compared to a case without doxycycline.
(In general: Quantitative PCR measures a nucleic acid by following its amplification.)

With `C[C@H]1c2cccc(O)c2C(=O)C2=C(O)[C@]3(O)C(=O)C(C(N)=O)=C(O)[C@@H](N(C)C)[C@@H]3[C@@H](O)[C@@H]21` [doxycycline], the “expression level of the SPI1 gene evaluated through qRT-PCR, increase compared to a case without doxycycline” value (doxycycline 1 μg/mL in culture liquid from day 6 to day 18, SPI1-introduced hiPSC-derived cells) was “at least 50 times”. For the same compound, the “expression level of the SPI1 gene with a primer set that selectively amplifies endogenous SPI1 gene” value (regardless of the presence or absence of doxycycline, endogenous SPI1 only) was 1-2 times.

The values are drawn from patent US20240309322A1, “[…], METHOD FOR MAN[…], AND MA[…] AND MICROGLIA” (KEIO UNIVERSITY, priority 2021, published 2024).
